This note sets out measurements from US20250043299A1, “POINT MUTATIONS THAT BOOST AROMATIC AMINO ACID PRODUCTION AND CO2 ASSIMILATION IN PLANTS” (Wisconsin Alumni Research Foundation, priority 2021, published 2025).

pIC50: −log10 of the molar value. Like-named read-outs stand apart in the source and are kept apart here.

What all share (format): biochemical
One assay concerns the target T1, DHS2^F1 (Arabidopsis thaliana, UniProt Q00218, L136F).
T1 construct: without the predicted plastid transit peptide (amino acid residues; 49-525, 34-507, and 52-527, respectively); made in house; host or cells: E. coli
Kind of assay: DHS enzyme assay, recombinant DHS2^F1. The note with it: for pIC50: read-out: IC50 of effector molecule on DHS2^F1. As for the experimental part:
(§1) To generate recombinant DHS proteins the pET28a vectors carrying the A. thaliana DHS1 (AtDHS1), AtDHS2, or AtDHS3 WT sequence without the predicted plastid transit peptide (amino acid residues; 49-525, 34-507, and 52-527, respectively) were expressed in E. coli Rosetta-2 cells and purified using Ni-affinity chromatography, exactly as was conducted previously (9). To generate DHS proteins with individual sota mutations via site-directed mutagenesis, these pET28a plasmid templates were diluted by 500-fold, mixed with 0.04 U/μL Phusion DNA polymerase (Thermo Scientific), 0.2 mM deoxynucleoside triphosphates (dNTPs), 1× Phusion reaction buffer (Thermo Scientific), and 0.5 μM forward and reverse mutagenesis primers (Table 10). The PCR reaction was run using the following protocol: 98° C. for 30 s followed by 20 cycles of 10 s at 98° C., 20 s at 70° C., 4.5 min at 72° C. with a final extension at 72° C. for 10 min. The PCR products were purified using a QIAquick Gel Extraction Kit (QIAGEN), treated with FastDigest DpnI (Thermo Scientific) to digest methylated plasmid template DNA for 20 min at 37° C., and transformed into E. coli cells. The mutagenized pET28a plasmids were sequenced to confirm that no errors were introduced during the mutagenesis process.
(§2) The DHS enzyme assays were conducted using the colorimetric method that we recently described (9). Briefly, the enzyme solution (7.7 μl) containing 50 mM Hepes (pH 7.4) was preincubated with an effector molecule(s) at room temperature for 15 min. For assays using recombinant protein and enzyme fractions isolated from plant leaves, 0.01 to 0.1 μg and approximately 50 μg of proteins were used, respectively. After adding 0.5 μl of 0.1 M dithiothreitol, the samples were further incubated at room temperature for 15 min. During these incubations, the substrate solution containing 50 mM Hepes (pH 7.4), 2 mM MnCl2, 4 mM E4P, and 4 mM PEP at final concentration was preheated at 37° C. The enzyme reaction was started by adding 6.8 μl of the substrate solution, then incubated at 37° C. for 30 min, and terminated by adding 30 μl of 0.6 M trichloroacetic acid. After a brief centrifugation, 5 μl of 200 mM NaIO4 (sodium meta-periodate) in 9 N H3PO4 was added to oxidize the enzymatic product and to incubate at 25° C. for 20 min. To stop the oxidation reaction, 20 μl of 0.75 M NaAsO2 (sodium arsenite), which was dissolved in 0.5 M Na2SO4 and 0.05 M H2SO4, was added and immediately mixed. After 5 min of incubation at room temperature, one-third of the sample solution was transferred to a new tube to be mixed with 50 μl of 40 mM thiobarbituric acid and incubated at 99° C. for 15 min in a thermal cycler. The mixture was added to 600 μl of cyclohexanone in eight-strip solvent-resistant plastic tubes, mixed vigorously, and centrifuged at 4500 g for 3 min to separate water- and cyclohexanone-based layers for the extraction off the developed pink chromophore. The absorbance of the pink supernatant was read at 549 nm with the microplate reader (Infinite 200 PRO, TECAN) to calculate DAHP production with the molar extinction coefficient at 549 nm (ε=549 nm) of 4.5×10^4 M^−1 cm^−1. Reaction mixtures with boiled enzymes were run in parallel and used as negative controls to estimate the background signal.

The target of the next assay is T2, DHS2^A4 (Arabidopsis thaliana, UniProt Q00218, G222S).
T2 construct: without the predicted plastid transit peptide (amino acid residues; 49-525, 34-507, and 52-527, respectively); made in house; host or cells: E. coli
As to conditions: for pIC50: read-out: IC50 of effector molecule on DHS2^A4. The method, then:
as §1, §2

Another assay deals with T3, DHS2^A11 (Arabidopsis thaliana, UniProt Q00218, A224T).
T3 construct: without the predicted plastid transit peptide (amino acid residues; 49-525, 34-507, and 52-527, respectively); made in house; host or cells: E. coli
Briefly: DHS enzyme assay, recombinant DHS2^A11. The note with it: for pIC50: read-out: IC50 of effector molecule on DHS2^A11. As for the experimental part: as §1, §2

The target in a further assay is T4, DHS1^B4 (Arabidopsis thaliana, UniProt P29976, G244R).
T4 construct: without the predicted plastid transit peptide (amino acid residues; 49-525, 34-507, and 52-527, respectively); made in house; host or cells: E. coli
Kind of assay: DHS enzyme assay, recombinant DHS1^B4. As to conditions: recombinant enzyme; for pIC50: read-out: IC50 of effector molecule on DHS1^B4. As for the experimental part:
as §1, §2

Assay [1] has as its target T5, Arabidopsis thaliana DHS1 (SEQ ID NO:1) variant DHS1^B4 (sotaB4), G244R (Arabidopsis thaliana, UniProt P29976, G244R).
T5 construct: without the predicted plastid transit peptide (amino acid residues; 49-525, 34-507, and 52-527, respectively); made in house; host or cells: E. coli
Briefly: DHS enzyme assay with effector, DHS1 sotaB4. The method, then:
as §1, §2

The target in assay [2] is T6, Arabidopsis thaliana DHS2 (SEQ ID NO:2) variant DHS2^A4 (sotaA4), G222S (Arabidopsis thaliana, UniProt Q00218, G222S).
T6 construct: without the predicted plastid transit peptide (amino acid residues; 49-525, 34-507, and 52-527, respectively); made in house; host or cells: E. coli
Briefly: biochemical. The method, then: as §1, §2

The target of assay [3] is Arabidopsis thaliana DHS3 (SEQ ID NO:3) variant DHS3^H1 (sotaH1), G114R (Arabidopsis thaliana, UniProt Q9SK84, G114R). Briefly: DHS enzyme assay with effector, DHS3 sotaH1. As for the experimental part: as §1
(§3) The DHS enzyme assays were conducted using the colorimetric method that we recently described (9). Briefly, the enzyme solution (7.7 μl) containing 50 mM Hepes (pH 7.4) was preincubated with an effector molecule(s) at room temperature for 15 min. For assays using recombinant protein and enzyme fractions isolated from plant leaves, 0.01 to 0.1 μg and approximately 50 μg of proteins were used, respectively. After adding 0.5 μl of 0.1 M dithiothreitol, the samples were further incubated at room temperature for 15 min. […] The absorbance of the pink supernatant was read at 549 nm with the microplate reader (Infinite 200 PRO, TECAN) to calculate DAHP production with the molar extinction coefficient at 549 nm (ε=549 nm) of 4.5×10^4 M^−1 cm^−1. […]

The target of assay [4] is Arabidopsis thaliana DHS3 (SEQ ID NO:3) variant DHS3^G1 (sotaG1), A240T (Arabidopsis thaliana, UniProt Q9SK84, A240T). Briefly: DHS enzyme assay with effector, DHS3 sotaG1. As for the experimental part:
as §1, §3

In assay [5] the target is T7, Arabidopsis thaliana DHS2 (SEQ ID NO:2) variant DHS2^F1 (sotaF1), L136F (Arabidopsis thaliana, UniProt Q00218, L136F).
T7 construct: without the predicted plastid transit peptide (amino acid residues; 49-525, 34-507, and 52-527, respectively); made in house; host or cells: E. coli
Kind of assay: DHS enzyme assay with effector, DHS2 sotaF1. As for the experimental part:
as §1, §3

In assay [6] the target is T8, Arabidopsis thaliana DHS2 (SEQ ID NO:2) variant DHS2^A11 (sotaA11), A224T (Arabidopsis thaliana, UniProt Q00218, A224T).
T8 construct: without the predicted plastid transit peptide (amino acid residues; 49-525, 34-507, and 52-527, respectively); made in house; host or cells: E. coli
Kind of assay: DHS enzyme assay with effector, DHS2 sotaA11. As for the experimental part:
as §1, §3

The target in assay [7] is Arabidopsis thaliana DHS3 (AtDHS3), wild type (DHS3^WT), SEQ ID NO:3 (Arabidopsis thaliana, UniProt Q9SK84). Briefly: DHS enzyme assay with effector, Arabidopsis DHS3 WT. As for the experimental part: as §1, §3
Setting [8] is: DHS3^WT, 4 mM E4P, 4 mM PEP, pH 7.4, 37° C., read-out: IC50.

What is called pIC50 is −log10 of the IC50, conventionally taken in molar units.

Sequence of Arabidopsis thaliana DHS3 (SEQ ID NO:3) variant DHS3^G1 (sotaG1), A240T (Q9SK84 entry or part of it A240T): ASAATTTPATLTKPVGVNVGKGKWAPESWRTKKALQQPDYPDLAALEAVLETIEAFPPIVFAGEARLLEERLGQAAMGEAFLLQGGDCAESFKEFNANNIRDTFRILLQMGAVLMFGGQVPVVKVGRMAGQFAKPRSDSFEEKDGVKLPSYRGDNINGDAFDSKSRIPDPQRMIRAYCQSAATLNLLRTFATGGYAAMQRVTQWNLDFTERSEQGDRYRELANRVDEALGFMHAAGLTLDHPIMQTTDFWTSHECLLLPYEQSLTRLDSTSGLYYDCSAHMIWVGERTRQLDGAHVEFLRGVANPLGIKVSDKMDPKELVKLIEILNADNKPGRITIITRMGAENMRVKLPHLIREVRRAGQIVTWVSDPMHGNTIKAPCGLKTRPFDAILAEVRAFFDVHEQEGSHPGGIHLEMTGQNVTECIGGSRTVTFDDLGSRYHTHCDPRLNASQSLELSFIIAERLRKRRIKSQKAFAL
T4 sequence (P29976 49-525 G244R): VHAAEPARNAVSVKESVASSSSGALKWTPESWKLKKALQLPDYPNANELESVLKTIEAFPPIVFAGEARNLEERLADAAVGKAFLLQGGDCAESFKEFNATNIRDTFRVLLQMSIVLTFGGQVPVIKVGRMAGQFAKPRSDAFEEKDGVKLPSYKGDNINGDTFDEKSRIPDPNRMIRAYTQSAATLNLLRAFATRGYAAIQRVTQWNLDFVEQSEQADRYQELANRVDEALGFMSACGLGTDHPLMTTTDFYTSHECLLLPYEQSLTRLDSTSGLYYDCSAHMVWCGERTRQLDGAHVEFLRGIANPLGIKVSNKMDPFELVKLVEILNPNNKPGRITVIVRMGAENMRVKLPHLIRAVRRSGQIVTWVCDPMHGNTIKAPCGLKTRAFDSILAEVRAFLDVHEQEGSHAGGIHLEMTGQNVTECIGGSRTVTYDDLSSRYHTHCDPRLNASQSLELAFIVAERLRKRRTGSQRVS
T5 sequence (P29976 49-525 G244R): as above
Sequence of Arabidopsis thaliana DHS3 (AtDHS3), wild type (DHS3^WT), SEQ ID NO:3 (Q9SK84 entry or part of it): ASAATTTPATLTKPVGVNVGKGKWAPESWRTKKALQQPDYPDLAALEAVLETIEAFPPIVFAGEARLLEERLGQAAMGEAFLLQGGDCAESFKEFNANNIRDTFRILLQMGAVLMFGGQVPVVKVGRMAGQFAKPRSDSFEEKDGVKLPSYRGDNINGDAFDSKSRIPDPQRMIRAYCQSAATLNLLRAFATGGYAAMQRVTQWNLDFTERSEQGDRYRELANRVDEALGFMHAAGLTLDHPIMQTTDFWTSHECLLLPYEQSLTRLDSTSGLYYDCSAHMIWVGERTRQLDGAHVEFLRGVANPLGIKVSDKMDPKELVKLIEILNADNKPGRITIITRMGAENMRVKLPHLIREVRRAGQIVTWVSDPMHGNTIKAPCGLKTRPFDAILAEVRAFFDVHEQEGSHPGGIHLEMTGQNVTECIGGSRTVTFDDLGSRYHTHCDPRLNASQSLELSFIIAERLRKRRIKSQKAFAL
T6 sequence (Q00218 34-507 G222S): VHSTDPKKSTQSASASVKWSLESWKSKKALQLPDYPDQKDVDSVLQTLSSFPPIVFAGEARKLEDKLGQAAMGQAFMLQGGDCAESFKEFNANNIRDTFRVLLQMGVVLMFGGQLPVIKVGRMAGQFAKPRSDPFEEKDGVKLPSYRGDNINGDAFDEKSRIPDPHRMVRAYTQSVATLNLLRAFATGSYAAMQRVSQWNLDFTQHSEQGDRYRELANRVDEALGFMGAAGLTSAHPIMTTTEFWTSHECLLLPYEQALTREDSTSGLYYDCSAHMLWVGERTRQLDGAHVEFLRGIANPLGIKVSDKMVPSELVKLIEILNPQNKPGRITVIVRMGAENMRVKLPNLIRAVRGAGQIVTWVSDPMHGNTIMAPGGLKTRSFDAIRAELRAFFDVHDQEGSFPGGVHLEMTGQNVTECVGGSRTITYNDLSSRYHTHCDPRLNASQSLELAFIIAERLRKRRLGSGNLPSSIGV
T2 sequence (Q00218 34-507 G222S): as above
Sequence of Arabidopsis thaliana DHS3 (SEQ ID NO:3) variant DHS3^H1 (sotaH1), G114R (Q9SK84 entry or part of it G114R): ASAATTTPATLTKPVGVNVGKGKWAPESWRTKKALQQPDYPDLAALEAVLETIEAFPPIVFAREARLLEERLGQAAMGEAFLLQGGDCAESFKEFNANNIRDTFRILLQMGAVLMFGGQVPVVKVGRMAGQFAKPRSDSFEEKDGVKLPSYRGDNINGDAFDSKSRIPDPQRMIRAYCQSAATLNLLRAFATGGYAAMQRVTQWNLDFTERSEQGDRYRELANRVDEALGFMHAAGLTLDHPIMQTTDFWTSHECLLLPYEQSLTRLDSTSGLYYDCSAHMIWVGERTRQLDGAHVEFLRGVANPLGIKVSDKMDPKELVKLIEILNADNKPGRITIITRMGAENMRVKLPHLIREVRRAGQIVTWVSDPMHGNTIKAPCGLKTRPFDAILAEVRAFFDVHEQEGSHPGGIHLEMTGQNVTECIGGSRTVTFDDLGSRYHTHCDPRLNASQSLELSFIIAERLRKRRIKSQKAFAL
T3 sequence (Q00218 34-507 A224T): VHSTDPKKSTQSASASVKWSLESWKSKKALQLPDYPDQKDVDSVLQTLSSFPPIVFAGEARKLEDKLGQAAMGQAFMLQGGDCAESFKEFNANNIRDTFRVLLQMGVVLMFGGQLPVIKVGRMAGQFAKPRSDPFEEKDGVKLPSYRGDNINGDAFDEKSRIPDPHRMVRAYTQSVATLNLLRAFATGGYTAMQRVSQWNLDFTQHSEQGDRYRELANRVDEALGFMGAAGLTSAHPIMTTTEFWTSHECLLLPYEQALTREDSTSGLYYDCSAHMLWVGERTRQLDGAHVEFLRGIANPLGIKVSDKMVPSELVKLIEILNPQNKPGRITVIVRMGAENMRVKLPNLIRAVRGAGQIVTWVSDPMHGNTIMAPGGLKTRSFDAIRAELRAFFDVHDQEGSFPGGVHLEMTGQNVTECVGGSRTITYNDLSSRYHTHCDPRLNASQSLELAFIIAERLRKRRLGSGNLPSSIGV
T8 sequence (Q00218 34-507 A224T): as above
T1 sequence (Q00218 34-507 L136F): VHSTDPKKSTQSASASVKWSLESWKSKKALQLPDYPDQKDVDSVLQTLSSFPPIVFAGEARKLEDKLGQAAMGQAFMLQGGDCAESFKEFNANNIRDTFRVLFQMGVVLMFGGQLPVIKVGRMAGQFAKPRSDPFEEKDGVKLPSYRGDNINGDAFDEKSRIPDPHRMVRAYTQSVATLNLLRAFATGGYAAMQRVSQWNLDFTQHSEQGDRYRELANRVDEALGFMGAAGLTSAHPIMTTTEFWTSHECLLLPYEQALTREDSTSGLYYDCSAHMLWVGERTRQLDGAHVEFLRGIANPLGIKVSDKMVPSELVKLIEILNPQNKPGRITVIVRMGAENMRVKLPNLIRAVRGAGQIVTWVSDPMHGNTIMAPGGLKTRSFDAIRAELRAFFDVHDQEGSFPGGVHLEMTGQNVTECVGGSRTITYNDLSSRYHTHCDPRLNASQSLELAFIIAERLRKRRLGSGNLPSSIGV

As for `N[C@@H](Cc1c[nH]c2ccccc12)C(=O)O` [Trp, tryptophan], on DHS2^F1 (effector up to 1 mM), the “inhibition of DHS2^F1 activity” value is recorded as “not inhibited”. Moreover, the “IC50 of effector molecule on DHS2^F1” value on DHS2^F1 (recombinant enzyme) is listed as “Not inhibited”. At DHS2^A4 (effector up to 1 mM), the “inhibition of DHS2^A4 activity” value is on record as “not inhibited”. Moreover, the “IC50 of effector molecule on DHS2^A4” value at DHS2^A4 (recombinant enzyme) was “Not inhibited”. Further, on DHS2^A11 (effector up to 1 mM), the “inhibition of DHS2^A11 activity” value was “not inhibited”. In addition, the “IC50 of effector molecule on DHS2^A11” value at DHS2^A11 (recombinant enzyme) was “Not inhibited”. In addition, at DHS1^B4, the “IC50 of effector molecule on DHS1^B4” value is “Not inhibited”.
As to `O=C(O)Cc1cc(O)ccc1O` [HGA, homogentisate], the negative logarithm of the IC50 (pIC50) at DHS2^F1 (recombinant enzyme) was 3.10; in assay [1], 2.52; in assay [2], 3.67; in [3] it was 3.39; at DHS2^A4 (recombinant enzyme), 3.67; at DHS2^A11 (recombinant enzyme), 3.62. Besides, the pIC50 in [4] was 3.43; on DHS1^B4, 2.52; in assay [5], 3.10; in assay [6], 3.62; in assay [7] it was 3.99.
Consider `O=C(O)C(=O)Cc1c[nH]c2ccccc12` [IPA, indole-3-pyruvate], for which the pIC50 was 4.13 on DHS2^F1 (recombinant enzyme); 2.30 in assay [1]; 4.13 in assay [2]; 3.97 in assay [3]; 4.13 on DHS2^A4 (recombinant enzyme); 4.04 on DHS2^A11 (recombinant enzyme). For the same molecule, the pIC50 in [4] was 3.56; at DHS1^B4 it was 2.30; in assay [5] it was 4.13; in assay [6], 4.04; in assay [7] (setting [8]), 4.60.
Consider `O=C(O)C(=O)Cc1ccc(O)cc1` [HPP, 4-Hydroxyphenylpyruvate], for which the pIC50 on DHS2^F1 (recombinant enzyme) was 3.49; in assay [1], 3.08; in [2], 3.84; in assay [3] it was 3.04; at DHS2^A4 (recombinant enzyme), 3.84; on DHS2^A11 (recombinant enzyme), 4.23. In addition, the pIC50 was 3.04 in assay [4]; 3.08 at DHS1^B4; 3.49 in assay [5]; 4.23 in [6]; 3.29 in [7] (setting [8]).
